The results in this text go back to patent publication US9550742B2, “11-OXO-10,11-dihydrodibenzo[B,F][1,4]thiazepine S-oxide derivatives and their use as dopamine D2 receptor antagonists” (The United States of America, as Represented by the …, priority 2013, dated 2017).

One experiment has as its target T1, D2 DAR (Homo sapiens, UniProt P14416).
T1 construct: expressed in transfected cells; host or cells: HEK293 T-REx, Tet-inducible, with chimeric G-protein Gqi5
In words: D2 Ca^2+ screen assay (calcium accumulation, HEK293 T-REx with Gqi5). The experiment is classed as cell-based. Particulars: dopamine D2 calcium release assay of Example 1; read-out: Ca^2+ AC50. As for the experimental part:
The resting concentration of calcium ions (Ca^2+) in the cells' cytoplasm is normally maintained in the range of 10-100 nM. To maintain this low concentration, Ca^2+ is actively pumped from the cytosol to the extracellular space and into the endoplasmic reticulum (ER), and sometimes into the mitochondria. Signaling occurs when the cell is stimulated to release Ca^2+ from intracellular stores. The most common signaling pathway that increases cytoplasmic calcium concentration is the phospholipase C (PLC) pathway. […] IP3 diffuses to the ER, binds to its receptor (IP3 receptor), which is a Ca^2+ channel and, thus, releases Ca^2+ from the ER to the cytosol. To measure this cytosolic Ca^2+ accumulation, we used the Screen Quest™ Fluo-8 Calcium Assay Kit (AAT Bioquest, Sunnyvale, Calif.). Acetoxymethyl (AM) esters bound to Fluo-8™ dye are non-polar molecules that easily cross live cell membranes transporting the dye inside the cell, and are then rapidly hydrolyzed by cellular esterases inside live cells. As Fluo-8™ is freed from AM esters, it binds to Ca^2+ and emits a fluorescent signal at 514 nm that escalates with increasing cytosolic Ca^2±. To measure this calcium flux signal, we used the Functional Drug Screening System (FDSS) (Hamamatsu, Japan), a high throughput screening device that allows optical detection of signal transmissions within living cells in a time-resolving fashion. […] Quest Fluo-8™ calcium reagent was freshly prepared prior to adding to the cells (lyophilized Fluo-8™ dye provided with the kit was re-suspended in 200 μL DMSO as a 500× stock and stored at −20° C.). 2 μL/well of Quest Fluo-8™ calcium dye diluted in HBSS +10 mM HEPES buffer (for every 10 mL buffer, 1 mL of 10× quencher provided in the kit and 20 μL of 500×DMSO stock dye were added) was added to cells with a Multi-Drop Combi (ThermoScientific) and incubated for 45-90 min in the dark at ambient temperature. Then, the plates were introduced into the FDSS where they were pinned with 23 nL of test compound or dopamine controls and were read by FDSS in non-stimulated mode for 180 sec for detection of agonists. […]

The target of another experiment is T2, D2 GPCR receptor (DAR) (Homo sapiens, UniProt P14416).
T2 construct: host or cells: CHO PathHunter β-arrestin cells
The experiment in a line: D2 beta-arrestin functional assay (PathHunter, CHO). The experiment is classed as cell-based. To be noted: ratio of D3 (Example 4) to D2 (Example 2) beta arrestin assay. From the text: For a secondary-screen and selectivity assays, DAR PathHunter® β-arrestin GPCR cell lines from DiscoveRx (Fremont, Calif.). In this) were used. In the D2 Receptor PathHunter® β-arrestin GPCR cell line, the D2 GPCR receptor (DAR) is overexpressed and fused with a small 42-amino acid fragment of β-galactosidase called ProLink™ on a CHO cellular background expressing a fusion protein of β-arrestin and a larger N-terminal deletion mutant of β-galactosidase (“enzyme acceptor”). When DAR is activated by dopamine, it stimulates binding of β-arrestin to the ProLink-tagged DAR and the two complementary parts of β-galactosidase form a functional enzyme. When substrate (PathHunter® Detection reagent) is added, β-galactosidase hydrolyzes it and generates a chemiluminescent signal.
D2 Receptor PathHunter® β-arrestin cells were seeded at 2,100 cells/well in 3 μL/well media (DiscoveRx Plating Reagent 2) with MultiDrop Combi dispenser (Thermo Scientific, Logan, Utah) onto white tissue culture treated 1,536-well Aurora plates (Brooks Automation, Chelmsford, Mass.) and allowed to attach overnight at 37° C., 5% CO2. Next, 23 nL/well of compound solutions in DMSO were added with a pintool transfer (Kalypsis, San Diego, Calif.). The cells were stimulated by compounds for 90 min at 37° C., 5% CO2, after which 1.5 μL/well of DiscoveRx detection reagent was added with BioRAPTR FRD dispenser. The detection reagent was prepared by mixing of Galacton Star Substrate, Emerald II solution and PathHunter buffer (supplied by the assay kit) together at a 1:5:19 proportion just prior to dispensing. The plates were incubated at ambient temperature for 1 hr, and the luminescent signal was read on a ViewLux plate reader (PerkinElmer, Waltham, Mass.).

The target in experiment [1] is D2L human dopamine receptors (Homo sapiens, UniProt P14416). In words: D2 binding assay ([^3H]methylspiperone, HEK membranes). Particulars: ratio of D3 (Example 5) to D2 (Example 3) binding assay. As for the experimental part:
Compounds were tested for differences in affinity between three dopamine receptor subtypes using radio-labeled ligand binding assays. The first assay determined the Ki value of the compounds for the D2 DAR subtype using stable HEK cell lines expressing the D2L human dopamine receptors (Codex Biosciences, Gaithersburg, Md.). Cells were cultured in Dulbecco's modified Eagle's Medium containing 10% FBS, 1,000 units/mL Penicillin, 1,000 mg/mL Streptomycin, 100 mM Sodium Pyruvate, 1 μg/mL Gentamicin, and […] G418. All cells were maintained at 37° C. in 5% CO2 and 90% humidity. For radioligand binding assays, cells were removed mechanically using calcium and magnesium-free Earle's Balanced Salt Solution (EBSS(−)). Intact cells were collected by centrifugation and then lysed with 5 mM Tris-HCl and 5 mM MgCl2 at pH 7.4 in a glass homogenizer. Homogenates were centrifuged at 20,000×g for 30 minutes. The membranes were re-suspended in EBSS (pH 7.4) and protein concentration was determined using a Bradford assay according to the manufacturer's recommendations (Bio-Rad). Membranes were diluted to 24 mg/mL. […] Membrane preparations were incubated for 90 min at room temperature with various concentrations of radioligand in a reaction volume of 250 μL EBSS containing 200 mM sodium metabisulfite. Non-specific binding was determined in the presence of 4 μM (+)-butaclamol. Bound ligand was separated from unbound by filtration through GF/C filters using a PerkinElmer cell harvester with ice cold EBSS (4 washes) and quantified on a Top-count (PerkinElmer) after addition of scintillation solution. […] In order to determine the affinity of a given compound for a receptor type, competition-binding assays were performed. […] Reactions were incubated, terminated, and quantified as indicated above.

Each structure is given as a SMILES string. Where only a bound is given, the exact number is not on record here.

T1 sequence (P14416 whole entry): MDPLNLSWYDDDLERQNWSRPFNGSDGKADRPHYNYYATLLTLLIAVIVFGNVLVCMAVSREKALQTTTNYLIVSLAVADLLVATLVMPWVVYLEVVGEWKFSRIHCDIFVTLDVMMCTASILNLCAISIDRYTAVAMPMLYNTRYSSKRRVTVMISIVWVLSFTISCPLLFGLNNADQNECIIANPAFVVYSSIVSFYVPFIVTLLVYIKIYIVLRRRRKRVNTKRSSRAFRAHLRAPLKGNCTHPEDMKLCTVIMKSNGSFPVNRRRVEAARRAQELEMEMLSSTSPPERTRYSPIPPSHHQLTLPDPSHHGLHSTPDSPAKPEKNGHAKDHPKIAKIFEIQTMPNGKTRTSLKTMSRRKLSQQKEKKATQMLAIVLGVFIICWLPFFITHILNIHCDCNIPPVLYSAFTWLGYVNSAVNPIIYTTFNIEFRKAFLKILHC
T2 sequence (P14416 whole entry): as above
D2L human dopamine receptors, sequence (P14416 whole entry): as above

As for `CN1C(=O)c2ccccc2[S@+]([O-])c2ccc(C(=O)NCc3ccc(Br)cc3)cc21` [Compound 52, N-(4-bromobenzyl)-10-methyl-11-oxo-10,11-dihydrodibenzo[b,f][1,4]thiazepine-8-carboxamide 5-(S)-oxide], the AC50 at D2 DAR is less than 1000 nM. The “D3/D2 beta-arrestin IC50ratio” value at D2 GPCR receptor (DAR) stood at 4.6. Also, in experiment [1], the “D3/D2 binding Ki ratio” value was 1.5.
Regarding `CN1C(=O)c2ccccc2[S@+]([O-])c2ccc(C(=O)NCCN3CCCC3)cc21` [Compound 54, 10-Methyl-11-oxo-N-(2-(pyrrolidin-1-yl)ethyl)-10,11-dihydrodibenzo[b,f][1,4]thiazepine-8-carboxamide 5-(S)-oxide], the concentration at half-maximal activity (AC50) at D2 DAR was less than 1000 nM. For the same compound, on D2 GPCR receptor (DAR), the “D3/D2 beta-arrestin IC50ratio” value worked out at 7.2. Also, in experiment [1], the “D3/D2 binding Ki ratio” value is 1.7.
Take `CCN1C(=O)c2ccccc2[S@+]([O-])c2ccc(C(=O)N[C@H](C)c3ccc(Br)cc3)cc21` [Compound 49, (R)-N-(1-(4-Bromophenyl)ethyl)-10-ethyl-11-oxo-10,11-dihydrodibenzo[b,f][1,4]thiazepine-8-carboxamide 5-(S)-oxide]: on D2 DAR, the AC50 is less than 1000 nM. In addition, at D2 GPCR receptor (DAR), the “D3/D2 beta-arrestin IC50ratio” value is 7.1. For the same compound, the “D3/D2 binding Ki ratio” value in experiment [1] came out at 1.3.
On to `CCN1C(=O)c2ccccc2[S@+]([O-])c2ccc(C(=O)NCc3ccc(C#N)cc3)cc21` [Compound 48, N-(4-Cyanobenzyl)-10-ethyl-11-oxo-10,11-dihydrodibenzo[b,f][1,4]thiazepine-8-carboxamide 5-(S)-oxide], for which the concentration at half-maximal activity (AC50) on D2 DAR is less than 1000 nM. Moreover, the “D3/D2 beta-arrestin IC50ratio” value at D2 GPCR receptor (DAR) was 6.3. Besides, in experiment [1], the “D3/D2 binding Ki ratio” value came out at 5.7.
Consider `CCN1C(=O)c2ccccc2[S@+]([O-])c2ccc(C(=O)NCc3ccc(F)cc3)cc21` [Compound 47, 10-Ethyl-N-(4-fluorobenzyl)-11-oxo-10,11-dihydrodibenzo[b,f][1,4]thiazepine-8-carboxamide 5-(S)-oxide], for which the AC50 on D2 DAR was less than 1000 nM. Besides, the “D3/D2 beta-arrestin IC50ratio” value at D2 GPCR receptor (DAR) was 5.6. For the same compound, the “D3/D2 binding Ki ratio” value in experiment [1] came out at 2.6.
Regarding `CCN1C(=O)c2ccccc2[S@+]([O-])c2ccc(C(=O)NCc3ccc(OC)cc3)cc21` [Compound 38, 10-Ethyl-N-(4-methoxybenzyl)-11-oxo-10,11-dihydrodibenzo[b,f][1,4]thiazepine-8-carboxamide 5-(S)-oxide], the AC50 at D2 DAR is less than 1000 nM. For the same compound, the “D3/D2 beta-arrestin IC50ratio” value on D2 GPCR receptor (DAR) is given as 2.5.
`CCN1C(=O)c2ccccc2[S+]([O-])c2ccc(NC(=O)Cc3ccc(F)cc3)cc21` (stereo not drawn) [Compound 46, N-(10-Ethyl-11-oxo-10,11-dihydrodibenzo[b,f][1,4]thiazepin-8-yl)-2-(4-fluorophenyl)acetamide 5-oxide]: the AC50 on D2 DAR was less than 1000 nM.
Still for that read-out and setting: to `CCN1C(=O)c2ccccc2[S+]([O-])c2ccc(C(=O)NCc3ccccc3)cc21` (stereo not drawn) [Compound 4, N-Benzyl-10-ethyl-11-oxo-10,11-dihydrodibenzo[b,f][1,4]thiazepine-8-carboxamide 5-oxide] belongs less than 1000 nM; to `CN1C(=O)c2ccccc2[S+]([O-])c2ccc(C(=O)NCc3ccc(Cl)cc3)cc21` (stereo not drawn) [Compound 27, N-(4-Chlorobenzyl)-10-methyl-11-oxo-10,11-dihydrodibenzo[b,f][1,4]thiazepine-8-carboxamide 5-oxide], less than 1000 nM.
The same measure, in the same setting: to `CCN1C(=O)c2ccccc2[S+]([O-])c2ccc(C(=O)NCc3cccc(OC)c3)cc21` (stereo not drawn) [Compound 2, 10-Ethyl-N-(3-methoxybenzyl)-11-oxo-10,11-dihydrodibenzo[b,f][1,4]thiazepine-8-carboxamide 5-oxide] belongs less than 1000 nM.
Take `CN1C(=O)c2ccccc2[S+]([O-])c2ccc(C(=O)NCCc3cccs3)cc21` (racemic) [Compound 32, 10-Methyl-11-oxo-N-(2-(thiophen-2-yl)ethyl)-10,11-dihydrodibenzo[b,f][1,4]thiazepine-8-carboxamide 5-oxide]: the AC50 at D2 DAR is less than 1000 nM. Further, the “D3/D2 beta-arrestin IC50ratio” value at D2 GPCR receptor (DAR) came out at 22.3. Further, in experiment [1], the “D3/D2 binding Ki ratio” value is 28.7.
With `CN1C(=O)c2ccccc2[S@+]([O-])c2ccc(C(=O)NCc3ccc(Cl)cc3)cc21` [Compound 51, N-(4-Chlorobenzyl)-10-methyl-11-oxo-10,11-dihydrodibenzo[b,f][1,4]thiazepine-8-carboxamide 5-(S)-oxide], the AC50 at D2 DAR is less than 1000 nM. Further, the “D3/D2 beta-arrestin IC50ratio” value on D2 GPCR receptor (DAR) is on record as 4.5.
For the compound `CCN1C(=O)c2ccccc2[S@+]([O-])c2ccc(C(=O)N[C@H](C)c3ccc4ccccc4c3)cc21` [Compound 50, (R)-10-Ethyl-N-(1-(naphthalen-2-yl)ethyl)-11-oxo-10,11-dihydrodibenzo[b,f][1,4]thiazepine-8-carboxamide 5-(S)-oxide], on D2 DAR, the concentration at half-maximal activity (AC50) was less than 1000 nM. The “D3/D2 beta-arrestin IC50ratio” value at D2 GPCR receptor (DAR) was 11.2. Further, in experiment [1], the “D3/D2 binding Ki ratio” value is listed as 16.2.
In the same order, the values of `CN1C(=O)c2ccccc2[S@+]([O-])c2ccc(C(=O)NCc3cccnc3)cc21` [Compound 53, 10-Methyl-11-oxo-N-(pyridin-3-ylmethyl)-10,11-dihydrodibenzo[b,f][1,4]thiazepine-8-carboxamide 5-(S)-oxide] are less than 1000 nM, 5.0 and 70.0.
Turning to `CCN1C(=O)c2ccccc2[S+]([O-])c2ccc(C(=O)NCc3ccc(C(C)(C)C)cc3)cc21` (stereo not drawn) [Compound 7, N-(4-tert-Butylbenzyl)-10-ethyl-11-oxo-10,11-dihydrodibenzo[b,f][1,4]thiazepine-8-carboxamide 5-oxide], the AC50 at D2 DAR is less than 1000 nM.
